# Test results from US10851098B2, “Azole amides and amines as alpha v integrin inhibitors” (BRISTOL-MYERS SQUIBB COMPANY, priority 2016, dated 2020).
# Target: T1, human αVβ6 (Homo sapiens, UniProt P06756+P18564)
# T1 construct: purchased R & D systems 3817-AV
# Experiment: human αVβ6 HTRF binding assay
# Description: All binding assays used the HTRF (homogeneous time resolved fluorescence) technology from Cisbio International, therefore all assays are described as HTRF binding assays. The assay results for the Examples are listed above together with the characterization data. The HTRF binding assays are established for the following integrins: human αVβ6, human αVβ1, human αVβ3, human αVβ5, and human αVβ8. All assays used the following assay buffer: 20 mM Tris, pH 7.4, 1 mM MgCl2, 1 mM MnCl2, 0.01% Tween 20, and 0.01% BSA. Alternatively, a SPA-based assay was used for evaluation of receptor binding.
# […]
# T1 sequence (P06756 31-992 limits assumed): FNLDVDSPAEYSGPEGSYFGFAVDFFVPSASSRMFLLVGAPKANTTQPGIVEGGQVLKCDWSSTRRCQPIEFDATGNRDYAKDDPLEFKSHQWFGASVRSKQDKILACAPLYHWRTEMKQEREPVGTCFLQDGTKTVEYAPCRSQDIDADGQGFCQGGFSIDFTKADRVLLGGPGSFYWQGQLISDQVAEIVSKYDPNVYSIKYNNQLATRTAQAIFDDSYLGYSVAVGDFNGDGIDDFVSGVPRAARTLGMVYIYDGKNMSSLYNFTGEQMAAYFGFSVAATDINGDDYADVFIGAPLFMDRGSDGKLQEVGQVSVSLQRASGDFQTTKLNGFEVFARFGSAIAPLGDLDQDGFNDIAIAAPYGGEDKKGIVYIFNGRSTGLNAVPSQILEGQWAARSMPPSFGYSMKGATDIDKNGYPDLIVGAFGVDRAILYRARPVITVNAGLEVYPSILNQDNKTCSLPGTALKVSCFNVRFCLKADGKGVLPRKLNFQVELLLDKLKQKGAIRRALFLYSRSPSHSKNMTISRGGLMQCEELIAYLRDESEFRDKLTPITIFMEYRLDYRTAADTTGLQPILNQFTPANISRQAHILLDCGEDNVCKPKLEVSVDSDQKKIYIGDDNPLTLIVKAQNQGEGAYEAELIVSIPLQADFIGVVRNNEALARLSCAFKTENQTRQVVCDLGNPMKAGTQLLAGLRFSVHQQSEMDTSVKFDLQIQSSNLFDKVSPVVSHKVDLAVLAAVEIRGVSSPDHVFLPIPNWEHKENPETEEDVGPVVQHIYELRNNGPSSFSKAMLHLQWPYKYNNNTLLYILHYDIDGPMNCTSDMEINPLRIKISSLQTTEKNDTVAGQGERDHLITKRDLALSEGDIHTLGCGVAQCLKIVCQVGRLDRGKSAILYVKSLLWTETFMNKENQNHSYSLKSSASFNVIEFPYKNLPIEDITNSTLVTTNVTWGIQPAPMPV
# T1 sequence (P18564 22-707 limits assumed): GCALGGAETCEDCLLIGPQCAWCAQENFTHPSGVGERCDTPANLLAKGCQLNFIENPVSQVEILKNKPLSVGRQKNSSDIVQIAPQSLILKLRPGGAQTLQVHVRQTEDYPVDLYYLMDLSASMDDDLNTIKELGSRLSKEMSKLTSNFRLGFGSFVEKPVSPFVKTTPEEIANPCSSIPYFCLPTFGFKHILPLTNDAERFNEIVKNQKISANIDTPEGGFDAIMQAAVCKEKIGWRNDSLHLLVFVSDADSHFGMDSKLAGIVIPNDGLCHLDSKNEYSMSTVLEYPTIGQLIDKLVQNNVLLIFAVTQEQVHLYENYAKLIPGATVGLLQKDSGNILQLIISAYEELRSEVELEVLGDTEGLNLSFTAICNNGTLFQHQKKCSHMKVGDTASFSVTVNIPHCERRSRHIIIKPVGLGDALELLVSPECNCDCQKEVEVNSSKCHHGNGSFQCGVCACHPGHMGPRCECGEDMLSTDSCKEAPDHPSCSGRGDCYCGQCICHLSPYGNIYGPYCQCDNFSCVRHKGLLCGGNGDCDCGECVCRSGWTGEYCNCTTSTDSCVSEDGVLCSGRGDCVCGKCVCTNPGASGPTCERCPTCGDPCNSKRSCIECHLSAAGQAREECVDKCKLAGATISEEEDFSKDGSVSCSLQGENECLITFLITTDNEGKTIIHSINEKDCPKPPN
row,SMILES,IC50 [µM]
1,CCOC(=O)N[C@@H](CNC(=O)c1cnn(CCc2ccc3c(n2)NCCC3)c1)C(=O)O [Example 132],0.0023
2,"O=C(O)CCN(Cc1cnn(CCc2ccc3c(n2)NCCC3)c1)C(=O)OCc1ccccc1 [Example 176, 3-(((Benzyloxy)carbonyl)((1-(2-(5,6,7,8-tetrahydro-1,8-naphthyridin-2-yl)ethyl)-1H-pyrazol-4-yl)methyl)amino)propanoic acid]",0.249
3,"CC(C)(C)OCc1nn(CCCc2ccc3c(n2)NCCC3)cc1C(=O)NC(CC(=O)O)c1cc(Cl)cc(Cl)c1 (centres unmarked) [Example 5, 3-(3-(tert-Butoxymethyl)-1-(3-(5,6,7,8-tetrahydro-1,8-naphthyridin-2-yl)propyl)-1H-pyrazole-4-carboxamido)-3-(3,5-dichlorophenyl)propanoic acid]",0.159
4,CC(C)(C)c1cc(Br)cc([C@H](CC(=O)O)NC(=O)c2cnn(Cc3ccc4c(n3)NCCC4)c2)c1 [Example 98],1.41
5,"O=C(O)C[C@H](NC(=O)c1cnn(CCCNc2ccccn2)c1)c1cc(Cl)cc(Cl)c1 [Example 7, (S)-3-(3,5-Dichlorophenyl)-3-(1-(3-(pyridin-2-ylamino)propyl)-1H-pyrazole-4-carboxamido)propanoic acid]",0.063
6,Cc1cc(C)c(S(=O)(=O)N[C@H](CNC(=O)c2cnn(CCc3cc4c(nc3C)NCCC4)c2)C(=O)O)c(C)c1 [Example 81],0.215
7,CC(C)(C)COC(=O)N[C@@H](CNC(=O)c1cnn(CCc2ccc3c(n2)NCCC3)c1)C(=O)O [Example 137],0.0008
8,CCCCCCOC(=O)N[C@@H](CNC(=O)c1cnn(CCc2ccc3c(n2)NCCC3)c1)C(=O)O [Example 160],0.0007
9,"COc1ccc([C@H](CC(=O)O)NC(=O)c2cn(CCc3ccc4c(n3)NCCC4)nc2COC(C)(C)C)cc1F [Example 1, (S)-3-(3-(tert-Butoxymethyl)-1-(2-(5,6,7,8-tetrahydro-1,8-naphthyridin-2-yl)ethyl)-1H-pyrazole-4-carboxamido)-3-(3-fluoro-4-methoxyphenyl)propanoic acid]",0.771
10,COc1ccc([C@H](CC(=O)O)NC(=O)c2cnn(CCCNC3=NCCN3)c2)cn1 [Example 88],0.378
11,CCOCCS(=O)(=O)N[C@@H](CNC(=O)c1cnn(CCc2ccc3c(n2)NCCC3)c1)C(=O)O [Example 148],0.0089
12,C=CCCOC(=O)N[C@@H](CNC(=O)c1cnn(CCc2ccc3c(n2)NCCC3)c1)C(=O)O [Example 135],0.0014
13,O=C(NC[C@H](NS(=O)(=O)Cc1cc(C(F)(F)F)cc(C(F)(F)F)c1)C(=O)O)c1cnn(CCc2ccc3c(n2)NCCC3)c1 [Example 157],0.016
14,CCCCCOC(=O)N[C@@H](CNC(=O)c1cnn(CCc2ccc3c(n2)NCCC3)c1)C(=O)O [Example 134],0.0008
15,O=C(NC[C@H](NS(=O)(=O)CC1CCCCC1)C(=O)O)c1cnn(CCc2ccc3c(n2)NCCC3)c1 [Example 164],0.0064
16,Cc1cc(C)c(S(=O)(=O)N[C@@H](CNC(=O)c2cnn(CCCNC3=NCC(F)CN3)c2)C(=O)O)c(C)c1 (some centres unmarked) [Example 173],0.0021
17,C#CCOC(=O)N[C@@H](CNC(=O)c1cnn(CCc2ccc3c(n2)NCCC3)c1)C(=O)O [Example 136],0.002
18,CCOC(=O)[C@H](CNC(=O)c1cn(CCc2ccc3c(n2)NCCC3)cn1)NS(=O)(=O)c1c(C)cc(C)cc1C [Example 117],0.13
19,CC(C)COC(=O)N[C@@H](CNC(=O)c1cnn(CCc2ccc3c(n2)NCCC3)c1)C(=O)O [Example 131],0.0009
20,Cc1cc(C)c(S(=O)(=O)N[C@@H](CNC(=O)c2ccnn2CCc2ccc3c(n2)NCCC3)C(=O)O)c(C)c1 [Example 115],0.034
21,COC(=O)N[C@@H](CNC(=O)c1cnn(CCc2ccc3c(n2)NCCC3)c1)C(=O)O [Example 130],0.013
22,"N[C@@H](CNC(=O)c1cnn(CCc2ccc3c(n2)NCCC3)c1)C(=O)O [Example 11, (S)-2-Amino-3-(1-(2-(5,6,7,8-tetrahydro-1,8-naphthyridin-2-yl)ethyl)-1H-pyrazole-4-carboxamido)propanoic acid]",0.121
23,O=C(NC[C@H](NS(=O)(=O)Cc1ccccc1C(F)(F)F)C(=O)O)c1cnn(CCc2ccc3c(n2)NCCC3)c1 [Example 128],0.0025
24,Cc1cccc(CS(=O)(=O)N[C@@H](CNC(=O)c2cnn(CCc3ccc4c(n3)NCCC4)c2)C(=O)O)c1 [Example 143],0.011

# More lines, now with the values ahead:
row,IC50 [µM],SMILES
1,0.349,"COc1ccc([C@H](CC(=O)O)NC(=O)c2cn(CCc3ccc4c(n3)NCCC4)nc2CO)cc1F [Example 2, (S)-3-(3-Fluoro-4-methoxyphenyl)-3-(3-(hydroxymethyl)-1-(2-(5,6,7,8-tetrahydro-1,8-naphthyridin-2-yl)ethyl)-1H-pyrazole-4-carboxamido)propanoic acid]"
2,0.137,O=C(O)CC(NC(=O)c1cn(CCc2ccc3c(n2)NCCC3)nc1-c1ccccc1)c1ccc(Cl)c(Cl)c1 (centres unmarked) [Example 78]
3,3.93,Cc1nc2c(cc1Cn1cc(C(=O)NC(CC(=O)O)c3cc(Cl)cc(Cl)c3)c(CO)n1)CCCN2 (centres unmarked) [Example 105]
4,0.014,CC(C)(C)OCc1c(C(=O)NC(CC(=O)O)c2cc(Cl)cc(Cl)c2)cnn1CCc1ccc2c(n1)NCCC2 (centres unmarked) [Example 41]
5,0.04,Cc1nn(CCc2ccc3c(n2)NCCC3)c(C)c1C(=O)NC(CC(=O)O)c1ccc(Cl)c(Cl)c1 (centres unmarked) [Example 57]
6,0.401,O=C(O)CC(CCc1ccccc1)NC(=O)c1cnn(CCc2ccc3c(n2)NCCC3)c1 (centres unmarked) [Example 90]
7,6.44,O=C(O)CC1(NC(=O)c2cnn(CCc3ccc4c(n3)NCCC4)c2)Cc2ccccc2C1 [Example 109]
8,0.095,O=C(O)CC(NC(=O)c1cnn(CCc2ccc3c(n2)NCCC3)c1CO)c1ccc(Cl)cc1 (centres unmarked) [Example 67]
9,0.124,COc1ccc(C(CC(=O)O)NC(=O)c2cnn(CCc3ccc4c(n3)NCCC4)c2CO)cc1 (centres unmarked) [Example 73]
10,0.021,COc1ccc([C@H](CC(=O)O)NC(=O)c2cnn(CCc3ccc4c(n3)NCCC4)c2)cn1 [Example 46]
11,0.015,COc1ccc([C@H](CC(=O)O)NC(=O)c2cnn(CCc3ccc4c(n3)NCCC4)c2)cc1F [Example 39]
12,0.244,O=C(O)CC(NC(=O)c1cn(CCc2ccc3c(n2)NCCC3)nc1-c1ccccc1)c1cc(Cl)cc(Cl)c1 (centres unmarked) [Example 82]
13,0.04,CC(C)(C)OCc1c(C(=O)NC(CC(=O)O)c2cc(Cl)cc(Cl)c2)cnn1CCCc1ccc2c(n1)NCCC2 (centres unmarked) [Example 59]
14,0.016,Cc1cc(C)n(-c2cccc(C(CC(=O)O)NC(=O)c3cnn(CCc4ccc5c(n4)NCCC5)c3CO)c2)n1 (centres unmarked) [Example 42]
15,0.022,O=C(O)CC(NC(=O)c1cnn(CCc2ccc3c(n2)NCCC3)c1CO)c1cc(Cl)cc(Cl)c1 (centres unmarked) [Example 47]
16,0.0062,"O=C(N[C@@H](CNCc1cnn(CCc2ccc3c(n2)NCCC3)c1)C(=O)O)OCc1ccccc1 [Example 174, (S)-2-(((Benzyloxy)carbonyl)amino)-3-(((1-(2-(5,6,7,8-tetrahydro-1,8-naphthyridin-2-yl)ethyl)-1H-pyrazol-4-yl)methyl)amino)propanoic acid]"

row,IC50 [µM],SMILES
1,0.131,COc1ccc(C(CC(=O)O)NC(=O)c2cnn(CCc3ccc4c(n3)NCCC4)c2CO)cc1OC (centres unmarked) [Example 76]
2,0.0062,O=C(NC[C@H](NS(=O)(=O)Cc1cc(Cl)cc(Cl)c1)C(=O)O)c1cnn(CCc2ccc3c(n2)NCCC3)c1 [Example 140]
3,5,Cc1nc2c(cc1CCn1ncc(C(=O)NC(CC(=O)O)c3cc(Cl)cc(Cl)c3)c1COC(C)(C)C)CCCN2 (centres unmarked) [Example 108]
4,0.056,CC(C)(C)c1cc(Br)cc([C@H](CC(=O)O)NC(=O)c2cn(CCc3ccc4c(n3)NCCC4)nc2C(F)(F)F)c1 [Example 63]
5,0.124,O=C(O)CC(NC(=O)c1cnn(CCc2ccc3c(n2)NCCC3)c1CO)c1ccccc1 (centres unmarked) [Example 72]
6,0.098,O=C(O)C[C@H](NC(=O)c1ncn(CCc2ccc3c(n2)NCCC3)n1)c1cc(Cl)cc(Cl)c1 [Example 120]
7,0.41,COc1ccc([C@H](CC(=O)O)NC(=O)c2cnn(CCc3ccc4c(n3)NCCC4)c2-c2ccccc2)cc1F [Example 91]
8,0.111,O=C(O)CC(NC(=O)c1cnn(CCc2ccc3c(n2)NCCC3)c1-c1ccccc1)c1cc(Cl)cc(Cl)c1 (centres unmarked) [Example 69]
9,0.098,O=C(O)CC(NC(=O)c1cnn(CCCc2ccc3c(n2)NCCC3)c1CO)c1cc(Cl)cc(Cl)c1 (centres unmarked) [Example 68]
10,0.018,CN(C(=O)c1cnn(CCCc2ccc3c(n2)NCCC3)c1)[C@@H](CC(=O)O)c1cc(Cl)cc(Cl)c1 [Example 45]
11,1.17,O=C(O)C[C@H](NC(=O)c1cnn(Cc2ccc3c(n2)NCCC3)c1)c1cc(Cl)cc(Cl)c1 [Example 97]
12,0.029,Cc1ccc(C(CC(=O)O)NC(=O)c2cnn(CCc3ccc4c(n3)NCCC4)c2CO)cc1C (centres unmarked) [Example 52]
13,0.014,CN(C(=O)c1cnn(CCc2ccc3c(n2)NCCC3)c1CO)C(CC(=O)O)c1cc(Cl)cc(Cl)c1 (centres unmarked) [Example 40]
14,0.125,COc1ccc([C@H](CC(=O)O)NC(=O)c2cnn(CCCc3ccc4c(n3)NCCC4)c2)cc1F [Example 74]
15,0.028,CC(C)(C)OCc1c(C(=O)NC(CC(=O)O)c2cccc(Oc3cc(Cl)cc(Cl)c3)c2)cnn1CCc1ccc2c(n1)NCCC2 (centres unmarked) [Example 51]
16,1.46,CCOC(=O)C[C@H](NC(=O)c1cnn(CCc2ccc3c(n2)NCCC3)c1)c1cc(Cl)cc(Cl)c1 [Example 101]
